The test system of one experiment is JAWSII cells. In words: JAWSII ELISA cytokine production (TNF, IL-6, IL-12). Format: cell-based, murine. As for the experimental part: Measurement of JAWSII cytokine production was performed similarly to manufacturer instructions. The cytokines analyzed were IL-12, IL-6, and TNF. For the cytokine assays, 1×10^5 JAWSII cells were seeded in an optically clear bottomed 6-well plate in 1 mL of complete assay media (identical to JAWSII growth media) for a density of 1×10^5 cells/well. Cells were incubated for 42 h. For co-culture experiments with JAWSII and B16 or β-galactosidase-enriched B16 cells, JAWSII cells were seeded at a density of 1×10^5 cells/well and allowed to adhere for 42 h before the addition of B16 cells, which were seeded at a density of 1×10^5 cells/well. For co-culture experiments with JAWSII and β-galactosidase-enriched B16 cells, JAWSII cells were seeded at a density of 1×10^5 cells/well and allowed to adhere for 42 h before the addition of β-galactosidase-enriched B16 cells, which were seeded at a density of 1×10^5 cells/well.
For experiments with β-gal, a stock solution (500 U/mL, where 1 U=1 μmol/min) was used. A final enzymatic activity of 1 U/well was achieved by addition of 2 μL of the 500 U/mL stock solution to each well. Stock solutions of Imiquimod or (6) in DMSO (1.15 and 1.49 mg/mL, respectively) were then added to the appropriate wells to achieve a final concentration of 5 μM. The cells were incubated for 16 h (37° C., 5% CO2) before supernatant was collected. Cells were pelletized (200 RCF, 10 min) and removed. Supernatant was analyzed for cytokines without further dilution according to manufacturer instructions for ELISA. Absorbance was analyzed at 450 nm and standard curves were used to determine absolute cytokine concentrations.
Background: ELISA stands for enzyme-linked immunosorbent assay.

For a further experiment, the system named is AT3B1 cells. In words: Conversion of pro-immunostimulant to Imiquimod by α-Mannosidase or AT3B-1 cells, LC-MS/MS. To be noted: α-Mannosidase 0.1 U/mL or AT3B1 cells, 0-48 h. Format: cell-based, rat. As to the method:
To concretely determine the conversion of pro-immunostimulant (compound 6) to Imiquimod in the presence of α-Mannosidase over time for exogenous and endogenous experiments, 20 μL aliquots of 100 μM (pro-immunostimulant (compound 6)) in DMEM were incubated with 180 μL of either α-Mannosidase (0.1 U/mL, 37° C., 5% CO2), or AT3B1 cells (1×105, or 5×105, or 1×10^6 cells, 37° C., 5% CO2) without the addition of exogenous enzyme as shown by FIG. 6. To stop the reaction at the specified time points (0, 1, 2, 3, 6, 12, 24, and 48 h), 50 μL AO Quench Internal Standard (20 μg/mL, 2-methyl-4(3H)-quinazolinone in 1 M formic acid) was added to each individual reaction. Samples were then analyzed via LC-MS/MS.
The AT3B-1 cell line (ATCC CRL-2375, rat prostate epithelial malignant carcinoma) were grown in complete culture media composed of Roswell Park Memorial Institute (RPMI) 1640 medium with 4.5 g/L glucose, 2 mM L-glutamine, 10,000 U/mL penstrep, 10 mM HEPES and supplemented with 10% HI-FBS and 1 μM doxorubicin. Media was changed every 3-4 days omitting the doxorubicin, and cells were passaged once per week. Passaging involved changing media, counting, and seeding 3×10^5 cells in 35 mL of new complete media in a new T-175 culture flask.
α-Mannosidase from Canavalia ensiformis (Jack bean) was used directly from the bottle to make a 1 U/mL stock solution in DPBS. […]

Experiment [1] deals with β-galactosidase-enriched B16 melanoma cells. Kind of experiment: Conversion of (6) to Imiquimod by β-galactosidase-enriched B16 cells, LC-MS/MS. Format: cell-based, murine. As to the method: For LC-MS/MS experiments, mobile phase A consisted of 0.05% formic acid and 0.2% acetic acid in water, and mobile phase B comprised 90% acetonitrile, 9.9% water, and 0.1% formic acid. Using a flow rate of 400 μL/min, mobile phase B 5% isocratic for 0.5 min, before gradient to 95% B over 2.2 min, followed by 95% isocratic for 0.1 min. The total chromatographic assay time (including time to equilibrate for the next run) was 4.0 min per sample. Optimized mass spectrometer parameters were as follows: collision gas, 20 psig; curtain gas, 20 psig; ion source gas 1, 60 psig; ion source gas 2, 40 psig; ion spray voltage, 5500 V; desolvation temperature, 600° C.; declustering potential, 70 V; entrance potential, 10 V; collision energy, 50 V; collision cell exit potential, 10 V. The substrate was detected using multiple reaction monitoring mode by monitoring the m/z fragmentation from 597.8 to 241.2 Da for (6) and the Imiquimod product was monitored for 241.2 to 185.1 Da fragmentation.
Murine melanoma cells (B16-F10, 5×10^6 cells) were removed from cell culture and pelletized via centrifuge (200 RCF, 0° C., 10 min). The supernatant was removed from the cell pellet, and cells were suspended in 1.5 mL of complete culture media (10% HI-FBS in DMEM) or preservative free FACS solution (10% HI-FBS in DPBS) that was pre-chilled on ice. Next, 15 μL of 0.5 mg/mL biotinylated α-gp-100 antibody (Abcam, UK) was added to the suspended cells, and the suspension was incubated on ice for 30 min with occasional shaking. Cells were then pelletized (200 RCF, 10 min, 0° C.) and washed 4 times each with 10 mL of chilled preservative free FACS solution (10% HI-FBS in DPBS). Washing Procedure: The cell pellet was suspended in 10 mL of FACS and centrifuged (200 RCF, 0° C., 10 min). Supernatant was removed from pellet, and the cells were suspended in subsequent chilled FACS solution for 1 min with constant shaking before this procedure was repeated. […] Enzyme enrichment (20-350 pU/cell) was quantified as average increase in enzymatic activity per cell determined by NPG colorimetric assay.

“4-Imiquimod-2-nitrophenyl-galactopyranoside [compound 6]”: the “pro-inflammatory cytokine production (TNF, IL-6, IL-12)” value in the experiment on JAWSII cells (5 μm, without β-galactosidase) was “not induce significant pro-inflammatory cytokine production”. In addition, the pro-inflammatory cytokine production entry in the experiment on JAWSII cells (co-cultures of JAWSII and β-galactosidase-enriched B16 melanoma cells) is “resulted in the production of pro-inflammatory cytokines”. For the same substance, the “cytokine production relative to Imiquimod, all three cytokines (TNF, IL-6, IL-12)” value in the experiment with JAWSII cells (with exogenous β-galactosidase, equimolar Imiquimod) is over 80%. In addition, the “conversion to Imiquimod and efflux” value with AT3B1 cells was “still being converted in the presence of enzyme and effluxed”. For the same substance, the “conversion of the compound” value in experiment [1] (β-galactosidase-enriched B16 cells (5 mU), over 3 h) is recorded as “quantitative conversion”. Also, the “conversion to Imiquimod” value in experiment [1] (β-galactosidase-enriched B16 cells, 1×10^5 cells/well, 35 mU/well, 24 h) was “near quantitative conversion”. In experiment [1] (β-galactosidase-enriched B16 cells, after 3 h), the “conversion into Imiquimod” value is reported as over 36%.

Values taken from US11117918B2, “Enzyme-directed immunostimulant and uses thereof” (Washington State University, priority 2016, dated 2021).
